Assay results reported in patent US20020156265A1, “DNA encoding a GABABR2 polypeptide and uses thereof” (priority 1998, published 2002).
“Also recorded” adds a separate entry of the source. Where two headings read alike, the source gives them in different places.

Assays:
[1] = biological target: GABABR1/R2 (Rattus norvegicus, UniProt Q9Z0U4); test: Radioligand binding, membranes from cells co-transfected with GABABR1/R2
Protocol: (§1) Transfected cells from culture flasks were scraped into 5 mL of Tris-HCl, 5 mM EDTA, pH 7.5, and lysed by sonication. The cell lysates were centrifuged at 1000 rpm for 5 min. at 4° C., and the supernatant was centrifuged at 30,000×g for 20 min. at 4° C. The pellet was suspended in binding buffer (50 mM Tris-HCl, 2.5 mM CaCl2 at pH 7.5 supplemented with 0.1% BSA, 2 μg/mL aprotinin, 0.5 mg/mL leupeptin, and 10 μg/mL phosphoramidon). […] In equilibrium saturation binding assays membrane preparations were incubated in the presence of increasing concentrations of labeled compound. […] Binding reaction mixtures were incubated for 1 hr at 30° C., and the reaction was stopped by filtration through GF/B filters treated with 0.5% polyethyleneimine, using a cell harvester. […] Data were analyzed by a computerized non-linear regression program. Non-specific binding was defined as the amount of radioactivity remaining after incubation of membrane protein in the presence of excess unlabeled compound. Protein concentration may be measured by the Bradford method using Bio-Rad Reagent, with bovine serum albumin as a standard.

[2] = biological target: GABABR1 (Rattus norvegicus, UniProt Q9Z0U4); test: Radioligand binding, [3H]-CGP54626, membranes of COS-7 or HEK293 cells expressing GABABR1; conditions: for pKi: Displacement of [3H]-CGP54626 from COS-7 cells expressing GABABR1
Chain of GABABR1 (Q9Z0U4 1-844 isoform Q9Z0U4-3): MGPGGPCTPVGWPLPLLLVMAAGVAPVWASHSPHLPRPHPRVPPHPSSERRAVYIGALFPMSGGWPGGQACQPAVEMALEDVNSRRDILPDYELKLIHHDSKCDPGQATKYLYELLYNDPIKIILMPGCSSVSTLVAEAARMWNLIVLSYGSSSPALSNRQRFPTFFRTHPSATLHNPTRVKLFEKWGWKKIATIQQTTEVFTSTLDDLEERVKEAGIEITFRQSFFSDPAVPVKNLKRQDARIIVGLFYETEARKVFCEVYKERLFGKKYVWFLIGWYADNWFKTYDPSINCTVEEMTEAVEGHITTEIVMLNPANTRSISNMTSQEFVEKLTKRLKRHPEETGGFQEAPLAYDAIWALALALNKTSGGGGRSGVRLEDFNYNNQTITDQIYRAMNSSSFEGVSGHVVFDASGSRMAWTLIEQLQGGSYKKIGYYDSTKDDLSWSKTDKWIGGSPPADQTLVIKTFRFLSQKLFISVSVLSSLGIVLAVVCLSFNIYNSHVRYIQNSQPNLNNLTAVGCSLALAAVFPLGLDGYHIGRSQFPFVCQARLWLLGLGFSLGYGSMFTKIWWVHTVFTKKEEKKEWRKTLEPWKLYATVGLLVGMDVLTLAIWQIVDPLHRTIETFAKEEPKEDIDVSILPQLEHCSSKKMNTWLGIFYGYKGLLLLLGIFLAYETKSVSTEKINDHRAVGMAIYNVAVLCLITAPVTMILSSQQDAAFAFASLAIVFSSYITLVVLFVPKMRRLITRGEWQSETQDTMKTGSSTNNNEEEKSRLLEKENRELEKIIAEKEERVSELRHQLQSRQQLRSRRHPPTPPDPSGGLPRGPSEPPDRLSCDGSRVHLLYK
Protocol: as §1

[3] = biological target: rat GABABR1/rat GABABR2 (Rattus norvegicus, UniProt Q9Z0U4); test: Microphysiometry (extracellular acidification) in CHO cells co-expressing rat GABABR1/rat GABABR2; conditions: 100 nM CGP55845, pretreatment with PTX
Chain of rat GABABR1/rat GABABR2 (Q9Z0U4 1-844 isoform Q9Z0U4-3, one chain of several): as the sequence (Q9Z0U4 1-844 isoform Q9Z0U4-3) above
Protocol: GABABR1, GABABR2 or the combination, were transiently expressed in CHO-K1 cells by liposome mediated transfection according to the manufacturer's recommendations (“LipofectAMINE”, GibcoBRL, Bethesda, Md.), and maintained in Ham's F-12 medium with 10% bovine serum. […] The recording paradigm consisted of a 100 ml/min flow rate and a 30 s flow interruption during which the rate measurement was taken. Challenges involved an 80 s drug exposure just prior to the first post-challenge rate measurement being taken, followed by two additional pump cycles. Acidification rates reported are expressed as a percentage increase of the peak response over the baseline rate observed just prior to challenge.

[4] = biological target: T1, GABABR1b/GABABR2 (Rattus norvegicus, UniProt Q9Z0U4); test: GIRK currents in HEK-293 cells transiently transfected with GABABR1b/GABABR2 + GIRKs (whole-cell patch clamp); type: cell-based; design: ligated to a PCR fragment containing the missing base pairs to obtain the full length clone; expressed in transfected cells; conditions: HEK-293 doubly transfected cells; CGP55845 at 1 μM, Ba++ 100 μM
T1 sequence (Q9Z0U4 1-844 isoform Q9Z0U4-3, one chain of several): as the sequence (Q9Z0U4 1-844 isoform Q9Z0U4-3) above
Protocol: The ability of the rat GABABR1 and GABABR2 genes to activate GIRK currents in mammalian cells was investigated by transient transfection of HEK-293 cells followed by voltage clamp analysis of currents. HEK-293 cells were maintained in Dulbecco's modified Eagle medium (DMEM) plus 10% (v/v) bovine calf serum, 2% L-glutamine, 50 U/ml penicillin, and 50 μg/ml streptomycin and were incubated at 37° C. in a humidified 5% CO2 atmosphere. Cells were harvested twice each week by treatment with 0.25% trypsin/1 mM EDTA in Hank's Salts and re-seeded at 20% of their original density either into 75 cm^2 flasks (for passaging) or into 35 mm tissue culture dishes (for transfection and electrophysiology experiments).
HEK-293 cells, 40%-80% confluent, were co-transfected with various combinations of 0.6 ug each of the following plasmids: pGreen Lantern-1 (Gibco/BRL, Gaithersburg, Md.), human GIRK1 (JS1800), human GIRK4 (JS1741), rat GABABR1b (BO58), and rat GABABR2 (BO55). Cells were transiently transfected using the Superfect Transfection Reagent from Qiagen (Valencia, Calif.) according to the manufacturer's instructions. Briefly, 3 μg total plasmid DNA were incubated with 22.5 μl Superfect Reagent in 100 μl serum-free DMEM for 5-10 minutes at room temperature. After addition of 600 μl complete DMEM, the DNA/Superfect mixture was transferred to cells growing in 35 mm dishes coated with poly-D-lysine and incubated for 2-4 hours at 37° C. in a 5% CO2 incubator. Subsequently, the dishes were washed once with phosphate-buffered saline and 2 ml complete DMEM was added. Cells were incubated for 24-72 hours at 37° C. before performing electrophysiological measurements.
The whole-cell configuration of the patch-clamp technique was used with glass pipettes having resistances of 2-4 MΩ when filled with the pipette solution. […] GIRK currents were recorded in elevated K^+ solution containing 25 mM K^+ and a correspondingly lower concentration of Na^+. Voltage clamp recordings were made with an EPC-9 amplifier using Pulse+PulseFit software (HEKA Elektronik). Series resistances were kept below 10 Mohm and no attempt was made to provide series resistance compensation. Currents were low-pass filtered at 1 kHz and digitized at a rate of 5 kHz. Unless otherwise noted, experiments were performed at room temperature on cells voltage clamped at a holding potential of −70 mV. […] The time to complete solution exchange was about 100 ms. The bath was constantly perfused at a low rate with control solution.

[5] = biological target: T1, GABABR1b/GABABR2; test: GIRK currents in Xenopus oocytes expressing GABABR1b/GABABR2 + GIRKs (voltage clamp); type: cell-based; design: ligated to a PCR fragment containing the missing base pairs to obtain the full length clone; linearized DNA plasmids containing the complete coding region of the gene; expressed in transfected cells; host or cells: Xenopus laevis oocytes, mRNA injection; conditions: for pKB: GABABR1 + GABABR2, oocytes, antagonist, measured using GABA as agonist, n = 4-6 oocytes; for Shift of the GABA concentration-response curve: CGP55845 at 50 nM, CGP54626 at 5 μM, FIG. 15B
Protocol: Human heart cDNA was used as template together with the primers
Dual electrode voltage clamp (“GeneClamp”, Axon Instruments Inc., Foster City, Calif.) is performed using 3 M KCl-filled glass microelectrodes having resistances of 1-3 Mohms. […] Experiments are carried out at room temperature.
Fits were made with a Marquardt-Levenberg non-linear least-squares curve fitting algorithm.

[6] = biological target: rat GABABR2 (rat) (UniProt O88871); test: cell-based or functional assay
[7] = biological target: rat GABABR2 (rat) (UniProt O88871); test: cell-based or functional assay; remark: listed apart in the source
[8] = tested on: GABA receptors; conditions: in vivo; cited from earlier work
[9] = aged rats; cited from earlier work
[10] = rhesus monkeys; cited from earlier work
[11] = biological target: T2, GABABR2 (Rattus norvegicus, UniProt O88871); test: Radioligand binding, membranes of HEK293 or COS-7 cells expressing GABABR2
T2 sequence (O88871 41-940): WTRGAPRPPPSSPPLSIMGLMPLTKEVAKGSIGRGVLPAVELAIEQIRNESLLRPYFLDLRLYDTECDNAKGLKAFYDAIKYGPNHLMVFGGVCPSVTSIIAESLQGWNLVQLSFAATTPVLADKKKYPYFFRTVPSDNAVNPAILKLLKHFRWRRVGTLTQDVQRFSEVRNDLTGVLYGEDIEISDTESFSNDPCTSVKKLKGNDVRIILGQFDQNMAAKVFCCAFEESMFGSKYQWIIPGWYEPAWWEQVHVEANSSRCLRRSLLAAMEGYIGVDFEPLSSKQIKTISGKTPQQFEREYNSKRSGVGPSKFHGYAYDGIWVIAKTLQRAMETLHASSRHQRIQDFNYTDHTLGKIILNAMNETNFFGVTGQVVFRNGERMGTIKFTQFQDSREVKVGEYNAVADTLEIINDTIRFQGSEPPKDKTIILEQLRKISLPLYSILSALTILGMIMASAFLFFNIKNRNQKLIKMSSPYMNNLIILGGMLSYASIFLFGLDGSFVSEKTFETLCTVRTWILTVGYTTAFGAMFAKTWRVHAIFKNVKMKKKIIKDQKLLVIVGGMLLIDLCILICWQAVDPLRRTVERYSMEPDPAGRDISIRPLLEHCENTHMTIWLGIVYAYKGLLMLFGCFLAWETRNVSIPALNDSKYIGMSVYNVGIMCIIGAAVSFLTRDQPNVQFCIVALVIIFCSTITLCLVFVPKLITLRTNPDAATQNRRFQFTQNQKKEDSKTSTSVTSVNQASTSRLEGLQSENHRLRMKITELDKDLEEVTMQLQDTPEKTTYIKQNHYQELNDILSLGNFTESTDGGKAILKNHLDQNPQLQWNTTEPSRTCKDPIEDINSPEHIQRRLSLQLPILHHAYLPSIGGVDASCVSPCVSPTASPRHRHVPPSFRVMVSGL
Protocol: as §1

[12] = rat, in vivo; cited from earlier work

Chain of GABABR1/R2 (Q9Z0U4 1-844 isoform Q9Z0U4-3, one chain of several): as the sequence (Q9Z0U4 1-844 isoform Q9Z0U4-3) above

CC1(C)CO[C@@H](CC(=O)O)CN1 [SCH-50911]
Binding profile compared with GABABR1 alone [1]: not different from those transfected with GABABR1 alone

C[C@H](NC[C@H](O)CP(=O)(O)Cc1ccccc1)c1ccc(Cl)c(Cl)c1 [CGP55845]
Binding profile compared with GABABR1 alone [1]: not different from those transfected with GABABR1 alone | pKi [2]: 8.7 | Block of baclofen-stimulated acidification response [3]: blocked | Block of GABA-elicited currents [4]: completely blocked; also recorded: abolished | pKB [5]: 8.60 | Block of currents stimulated by GABA ([5]; oocytes, CGP55845 1 μM, reversible): completely blocked | Shift of the GABA concentration-response curve ([5]; oocytes): Right-ward shifts

rat GABABR1b (from UniProt Q9Z0U4 164-960) (receptor)
Magnitude of GIRK currents stimulated by GABA, HEK-293, mean (pA) [6]: 658 pA | Magnitude of GIRK currents stimulated by GABA, oocytes, mean (nA) [6]: 1400 nA | agonist-evoked extracellular acidification rate, microphysiometer, co-transfected CHO cells [6]: 9 fold | Magnitude of GIRK currents stimulated by GABA, HEK-293, mean (pA) [7]: 470 pA | Magnitude of GIRK currents stimulated by GABA, oocytes, mean (nA) [7]: 832 nA

NCC(CP(=O)(O)O)c1ccc(Cl)cc1 (stereo not drawn) [phaclofen]
Dopamine release in the ventral pallidum [8]: increased dopamine release

CCCCP(=O)(O)CCCN [CGP36742]
Learning performance [9]: improve learning performance | Performance in conditioned spatial color task [10]: improve

pertussis toxin
Block of baclofen-stimulated acidification response [3]: blocked | Effect on GABA-stimulated currents ([5]; oocytes injected with pertussis toxin 2 ng/oocyte 6 h before voltage clamping): abolished

C[C@H](NC[C@H](O)CP(=O)(O)CC1CCCCC1)c1ccc(Cl)c(Cl)c1 [CGP54626]
Binding profile compared with GABABR1 alone [1]: not different from those transfected with GABABR1 alone | pKi [2]: 8.95 | pKB [5]: 7.48 | Shift of the GABA concentration-response curve ([5]; oocytes): Right-ward shifts

rat GABABR1a (from UniProt Q9Z0U4 20-960) (receptor)
K+ (GIRK) currents in response to 100 µM GABA, HEK-293 cells [6]: 1050 pA

[Ba+2] [Ba^++]
Block of GABA-elicited currents [4]: completely blocked

C[C@H](NC[C@H](O)CP(=O)(O)CC1CCCCC1)c1ccc(Cl)c(Cl)c1 [[^3H]-CGP54626]
Labeling of membranes by radioligand [11]: not those expressing GABABR2 | Labeling of membranes by radioligand ([2]; HEK293 or COS-7 cells expressing GABABR1): labeled

NCC(CC(=O)O)c1ccc(Cl)cc1 (stereo not drawn) [baclofen]
Reinforcing effects of cocaine [12]: attenuate the reinforcing effects of cocaine
